Experimental data reported in the supplement of paper PMC11368000.

What was measured:
Details in all cases: exposure time: 90 min
[1] = system: 1309 (donor line of iPSC-derived cardiomyocytes); assay: POD (EC05) for decrease in beat frequency (negative chronotrope) vs vehicle; higher = less potent (higher point of departure)
Method: (§1)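 Human iPSC-derived cardiomyocytes from 16 donors were exposed for 90 min at 37 °C to each PFAS at 0.1, 1, 10 and 100 µM in 0.5% DMSO, 384-well plates. Kinetic Ca2+ flux (FLIPR) and Hoechst nuclei counts were normalised to vehicle wells and fitted with a hierarchical Bayesian Hill model to give donor-specific PODs: EC05 for beat-rate increase or decrease and for decay-to-rise ratio increase (QT proxy), EC95 for peak-frequency loss (asystole), EC10 for total cell number loss. 0.03 µM is the lower bound.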

[2] = system: 1368 (donor line of iPSC-derived cardiomyocytes); assay: as above
Method: as §1

[3] = system: 1392 (donor line of iPSC-derived cardiomyocytes); assay: as above
Method: as §1

[4] = system: 1118 (donor line of iPSC-derived cardiomyocytes); assay: as above
Method: as §1

[5] = system: 1434 (donor line of iPSC-derived cardiomyocytes); assay: as above
Method: as §1

[6] = system: 20032 (donor line of iPSC-derived cardiomyocytes); assay: as above
Method: as §1

[7] = system: 1518 (donor line of iPSC-derived cardiomyocytes); assay: as above
Method: as §1

[8] = system: 1535 (donor line of iPSC-derived cardiomyocytes); assay: as above
Method: as §1

[9] = system: 30171 (donor line of iPSC-derived cardiomyocytes); assay: as above
Method: as §1

[10] = system: 20084 (donor line of iPSC-derived cardiomyocytes); assay: as above
Method: as §1

[11] = system: 1531 (donor line of iPSC-derived cardiomyocytes); assay: as above
Method: as §1

[12] = system: 30145 (donor line of iPSC-derived cardiomyocytes); assay: as above
Method: as §1

[13] = system: 1565 (donor line of iPSC-derived cardiomyocytes); assay: as above
Method: as §1

[14] = system: 11235 (donor line of iPSC-derived cardiomyocytes); assay: as above
Method: as §1

[15] = system: 1083 (donor line of iPSC-derived cardiomyocytes); assay: as above
Method: as §1

[16] = system: 1516 (donor line of iPSC-derived cardiomyocytes); assay: as above
Method: as §1

[17] = system: 1368; assay: POD (EC10) for decrease in total cell number (cytotoxicity) vs vehicle; higher = less potent (higher point of departure)
Method: as §1

[18] = system: 1535; assay: as above
Method: as §1

[19] = system: 20084; assay: as above
Method: as §1

[20] = system: 11235; assay: as above
Method: as §1

Compound | POD vs vehicle [1] | POD vs vehicle [2] | POD vs vehicle [3] | POD vs vehicle [4] | POD vs vehicle [5] | POD vs vehicle [6] | POD vs vehicle [7] | POD vs vehicle [8] | POD vs vehicle [9] | POD vs vehicle [10] | POD vs vehicle [11] | POD vs vehicle [12] | POD vs vehicle [13] | POD vs vehicle [14] | POD vs vehicle [15] | POD vs vehicle [16] | POD vs vehicle [17] | POD vs vehicle [18] | POD vs vehicle [19] | POD vs vehicle [20]
O=C(O)C=C(C(F)(F)F)C(F)(F)F [3,3-Bis(trifluoromethyl)-2-propenoic_acid] | > 100 µM | > 100 µM | > 100 µM | > 100 µM | > 100 µM | > 100 µM | > 100 µM | > 100 µM | > 100 µM | > 100 µM | > 100 µM | > 100 µM | > 100 µM | > 100 µM | > 100 µM | > 100 µM | > 100 µM | > 100 µM | > 100 µM | > 100 µM
O=C(O)C=CC(F)(C(F)(F)F)C(F)(F)F [3-(Perfluoroisopropyl)-2-propenoic_acid] | > 100 µM | > 100 µM | > 100 µM | > 100 µM | > 100 µM | > 100 µM | > 100 µM | > 100 µM | > 100 µM | > 100 µM | > 100 µM | > 100 µM | > 100 µM | > 100 µM | > 100 µM | > 100 µM | > 100 µM | > 100 µM | > 100 µM | > 100 µM
O=C(O)CCC(F)(F)C(F)(F)C(F)(F)C(F)(F)C(F)(F)C(F)(F)C(F)(F)F [3-Perfluoroheptylpropanoic_acid] | > 100 µM | > 100 µM | > 100 µM | 13.8 µM | 21 µM | > 100 µM | > 100 µM | > 100 µM | 24.9 µM | > 100 µM | 80.7 µM | > 100 µM | > 100 µM | 20.2 µM | > 100 µM | 56.9 µM | > 100 µM | > 100 µM | > 100 µM | > 100 µM
O=C(O)CCC(F)(F)C(F)(F)C(F)(F)F [3:3 Fluorotelomer carboxylic acid] | > 100 µM | > 100 µM | > 100 µM | > 100 µM | > 100 µM | > 100 µM | > 100 µM | > 100 µM | > 100 µM | > 100 µM | > 100 µM | > 100 µM | > 100 µM | > 100 µM | > 100 µM | > 100 µM | > 100 µM | > 100 µM | > 100 µM | > 100 µM
O=C(CC(=O)C(F)(F)C(F)(F)F)C(F)(F)F [3H,3H-Perfluoro-2,4-hexanedione] | > 100 µM | > 100 µM | > 100 µM | 24.6 µM | 22.6 µM | > 100 µM | > 100 µM | > 100 µM | 23.5 µM | > 100 µM | > 100 µM | > 100 µM | > 100 µM | 24.9 µM | > 100 µM | 45.3 µM | > 100 µM | > 100 µM | > 100 µM | > 100 µM
OCCC(F)(F)C(F)(F)C(F)(F)C(F)(F)F [4:2 Fluorotelomer alcohol] | > 100 µM | > 100 µM | > 100 µM | 22.9 µM | > 100 µM | > 100 µM | > 100 µM | > 100 µM | > 100 µM | > 100 µM | > 100 µM | > 100 µM | > 100 µM | > 100 µM | > 100 µM | > 100 µM | > 100 µM | > 100 µM | > 100 µM | > 100 µM
O=S(=O)(O)CCC(F)(F)C(F)(F)C(F)(F)C(F)(F)F [4:2 Fluorotelomer sulfonic acid] | > 100 µM | > 100 µM | > 100 µM | > 100 µM | > 100 µM | > 100 µM | > 100 µM | > 100 µM | > 100 µM | > 100 µM | > 100 µM | > 100 µM | > 100 µM | > 100 µM | > 100 µM | > 100 µM | > 100 µM | > 100 µM | > 100 µM | > 100 µM
OCC(F)(F)C(F)(F)C(F)(F)C(F)(F)C(F)(F)C(F)(F)F [6:1 Fluorotelomer alcohol] | > 100 µM | 74.9 µM | > 100 µM | 0.554 µM | 21.9 µM | > 100 µM | > 100 µM | > 100 µM | 24.3 µM | > 100 µM | > 100 µM | > 100 µM | > 100 µM | 21.5 µM | 24.6 µM | > 100 µM | > 100 µM | > 100 µM | > 100 µM | > 100 µM
OCCC(F)(F)C(F)(F)C(F)(F)C(F)(F)C(F)(F)C(F)(F)F [6:2 Fluorotelomer alcohol] | > 100 µM | > 100 µM | > 100 µM | 31.5 µM | > 100 µM | > 100 µM | > 100 µM | > 100 µM | > 100 µM | > 100 µM | > 100 µM | > 100 µM | > 100 µM | > 100 µM | 58.7 µM | > 100 µM | > 100 µM | > 100 µM | > 100 µM | > 100 µM
O=S(=O)(O)CCC(F)(F)C(F)(F)C(F)(F)C(F)(F)C(F)(F)C(F)(F)F [6:2 Fluorotelomer sulfonic acid] | > 100 µM | > 100 µM | > 100 µM | 12.8 µM | > 100 µM | > 100 µM | 42.6 µM | > 100 µM | 24.5 µM | > 100 µM | 25.1 µM | > 100 µM | 39.6 µM | 6.84 µM | > 100 µM | 33.5 µM | > 100 µM | > 100 µM | > 100 µM | > 100 µM
OCCC(F)(F)C(F)(F)C(F)(F)C(F)(F)C(F)(F)C(F)(F)C(F)(F)C(F)(F)F [8:2 Fluorotelomer alcohol] | > 100 µM | > 100 µM | > 100 µM | > 100 µM | > 100 µM | > 100 µM | > 100 µM | > 100 µM | > 100 µM | > 100 µM | > 100 µM | > 100 µM | > 100 µM | > 100 µM | > 100 µM | > 100 µM | > 100 µM | > 100 µM | > 100 µM | > 100 µM
O=S(=O)(O)CCC(F)(F)C(F)(F)C(F)(F)C(F)(F)C(F)(F)C(F)(F)C(F)(F)C(F)(F)F [8:2 Fluorotelomer sulfonic acid] | 33.9 µM | > 100 µM | > 100 µM | > 100 µM | 12.8 µM | 34.5 µM | 65.7 µM | 60.9 µM | 6.39 µM | 0.768 µM | 1.06 µM | 15.3 µM | 9.96 µM | 0.121 µM | > 100 µM | 6.6 µM | > 100 µM | > 100 µM | > 100 µM | > 100 µM
O=C(O)C(F)(F)C(F)(F)C(F)(F)C(F)(F)C(F)(F)C(F)(F)C(F)(F)C(F)(F)Cl [9-Chloro-perfluorononanoic_acid] | 84.3 µM | > 100 µM | > 100 µM | 13.1 µM | 10.9 µM | 44.8 µM | > 100 µM | 39.9 µM | 6.24 µM | > 100 µM | > 100 µM | > 100 µM | > 100 µM | 2.23 µM | > 100 µM | 14.9 µM | > 100 µM | > 100 µM | > 100 µM | > 100 µM
O=P(O)(O)CCC(F)(F)C(F)(F)C(F)(F)C(F)(F)C(F)(F)C(F)(F)C(F)(F)C(F)(F)F [((Perfluorooctyl)ethyl)phosphonic_acid] | > 100 µM | > 100 µM | > 100 µM | > 100 µM | > 100 µM | > 100 µM | > 100 µM | > 100 µM | > 100 µM | > 100 µM | > 100 µM | > 100 µM | > 100 µM | > 100 µM | > 100 µM | > 100 µM | > 100 µM | > 100 µM | > 100 µM | > 100 µM
O=C([O-])C(F)(F)C(F)(F)C(F)(F)C(F)(F)C(F)(F)C(F)(F)C(F)(F)F.[NH4+] [Ammonium_perfluorooctanoate] | > 100 µM | > 100 µM | > 100 µM | 11 µM | 46.1 µM | 79.9 µM | 87.3 µM | 43.5 µM | 7.16 µM | > 100 µM | 18.9 µM | > 100 µM | > 100 µM | 4.51 µM | > 100 µM | 58.4 µM | > 100 µM | > 100 µM | > 100 µM | > 100 µM
OCC(F)(F)C(F)(F)C(F)(F)C(F)(F)C(F)(F)C(F)F [Dodecafluoroheptanol] | 19.4 µM | 13.7 µM | 18 µM | 1.39 µM | 18.1 µM | 18.3 µM | 14.9 µM | 18.4 µM | 20.1 µM | 19.3 µM | 15.7 µM | 19.4 µM | 20.3 µM | 19.2 µM | 15.3 µM | 18.9 µM | > 100 µM | > 100 µM | > 100 µM | 85.3 µM
OCC(F)(F)OC(F)(F)C(F)(F)OC(F)(F)C(F)(F)OC(F)(F)F [Fluorinated_triethylene_glycol_monomethyl_ether] | > 100 µM | > 100 µM | > 100 µM | 2.52 µM | 25.3 µM | > 100 µM | > 100 µM | > 100 µM | > 100 µM | > 100 µM | > 100 µM | > 100 µM | > 100 µM | > 100 µM | > 100 µM | > 100 µM | > 100 µM | > 100 µM | 0.358 µM | > 100 µM
OCC(F)(F)C(F)(F)C(F)(F)F [Heptafluorobutanol] | > 100 µM | > 100 µM | > 100 µM | > 100 µM | > 100 µM | > 100 µM | > 100 µM | > 100 µM | > 100 µM | > 100 µM | > 100 µM | > 100 µM | > 100 µM | > 100 µM | > 100 µM | > 100 µM | > 100 µM | > 100 µM | > 100 µM | > 100 µM
NC(=O)C(F)(F)C(F)(F)C(F)(F)F [Heptafluorobutyramide] | > 100 µM | > 100 µM | > 100 µM | > 100 µM | > 100 µM | > 100 µM | > 100 µM | > 100 µM | > 100 µM | > 100 µM | > 100 µM | > 100 µM | > 100 µM | > 100 µM | > 100 µM | > 100 µM | > 100 µM | > 100 µM | > 100 µM | > 100 µM
